Tested on: C. beijerinckii NCIMB 8052
Assay: Growth (optical density at 600 nm) of sequential batch cultures
Type: cell-based, Clostridium beijerinckii
Protocol: Bacterial strains and media. Clostridium acetobutylicum ATCC 824 and C. beijerinckii NCIMB 8052 are available from several commercial microbial culture collections including the American Type Culture Collection (ATCC), Manassas, Va., USA. The strains were grown at 30° C. or 37° C. in YE broth, which contained, per liter: 5.0 g yeast extract, 2.5 g casamino acids, 1.0 g L-asparagine, 0.5 g cysteine.HCl, 56 mg K2HPO4, 56 mg KH2PO4, 82 mg anhydrous MgSO4, 8 mg FeSO4.H2O, 6 mg MnSO4.H2O and 10 g glucose. Alternatively, strains were grown in YEPG broth, which was identical to YE expect that K2HPO4 and KH2PO4 were increased to 145 mg/L each and glucose was increased to 60 g/L. The pH of the media was adjusted to 7.2 using 45% KOH prior to sterilization by autoclaving. Media were solidified by addition of 1.5% Bacteriological Agar, Actimedia Manufacturers, Inc., Lansing, Mich. All cultures were grown in anaerobic conditions using the AnaeroPack System, Mitsubishi Gas Chemical Co., Inc., Japan, and GasPak EZ Gas Generating Sachets, Becton, Dickinson and Co., Sparks, Md. Spore stocks were kept at room temperature on agar-solidified media and were activated by suspending spores in 0.5 mL to 1.0 mL of medium followed by heating for 10 min at 80° C. before inoculation into growth medium.
Growth and pH measurements. Growth of bacterial cultures was measured spectrophotometrically using optical density at 600 nm and pH of cell-free culture supernatants was measured using a hand-held Shindengen ISFET pH Meter KS501, Shendengen Electric Manufacturing Co., Ltd., Bannockburn, Ill.
Effect of peptide SEQ ID NO:145 addition on sequential batch cultures of C. beijerinckii NCIMB 8052 grown at 30° C. Spores of C. beijerinckii NCIMB 8052 were germinated and grown overnight at 30° C. under anaerobic conditions in YEPG medium. After about 24 h of growth, […] of the culture was transferred (transfer 1) to each of four flasks that contained 10 mL of YEPG and either had no treatment or were treated with peptide SEQ ID NO:145 (see Table 8) at 1 nM, 10 nM or 50 nM. Thereafter, 75 μL of each culture was transferred, at the same time, every 24-48 h to 10 mL of fresh YEPG that contained the same peptide treatment or no treatment. Each culture was stopped after 96 hours of incubation and optical density, pH and ceric ion reactive chemicals were measured. Sequential batch culturing was continued through 6 transfers at which point all cultures appeared to be growing to the same extent (Table 12 and FIG. 4).
Effect of peptide SEQ ID NO:145 addition on sequential batch cultures of C. beijerinckii NCIMB 8052 grown at 37° C. Spores of C. beijerinckii NCIMB 8052 were germinated and grown overnight at 37° C. under anaerobic conditions in YEPG medium that either contained 50 nM of peptide SEQ ID NO:145 or no added peptide. After about 24 h of growth, 10 μL of the untreated culture was transferred (transfer 1) to each of two flasks that contained 10 mL of YEPG with either no treatment or with 50 nM peptide SEQ ID NO:145. At the same time, 10 μL of the culture that was germinated in the presence of peptide SEQ ID NO:145 was also transferred to 10 mL of YEPG that contained 50 nM of peptide SEQ ID NO:145. Thereafter, 10 μL of each culture was transferred, at the same time, every 24-48 h to 10 mL of fresh YEPG that contained the same peptide treatment or no treatment. Each culture was stopped after 72 hours of incubation and optical density, pH and ceric ion reactive chemicals were measured. Addition of peptide SEQ ID NO:145 appeared to have no effect on endpoint measurements of the growth of C. beijerinckii NCIMB 8052 after germination or during sequential transfers of cultures at 37° C. (Table 18 and FIG. 10). All three cultures stopped growing at the second transfer.

Substance: IRLIT (Derived from Clostridium beijerinckii SEQ ID NO: 141) [Peptide SEQ ID NO:145, pentapeptide from C. beijerinckii NCIMB 8052 locus Cbei_1065; chemically synthesized putative autoinducing peptide]
- Optical density at 600 nm of culture broths (1 nM peptide, transfer 1, 96 h, 30° C.): 2.086
- Optical density at 600 nm of culture broths (1 nM peptide, transfer 2, 96 h, 30° C.): 2.086
- Optical density at 600 nm of culture broths (1 nM peptide, transfer 3, 96 h, 30° C.): 2.106
- Optical density at 600 nm of culture broths (1 nM peptide, transfer 4, 96 h, 30° C.): 2.115
- Optical density at 600 nm of culture broths (1 nM peptide, transfer 5, 96 h, 30° C.): 2.090
- Optical density at 600 nm of culture broths (1 nM peptide, transfer 6, 96 h, 30° C.): 2.075
- Optical density at 600 nm of culture broths (10 nM peptide, transfer 1, 96 h, 30° C.): 2.080
- Optical density at 600 nm of culture broths (10 nM peptide, transfer 2, 96 h, 30° C.): 2.093
- Optical density at 600 nm of culture broths (10 nM peptide, transfer 3, 96 h, 30° C.): 2.078
- Optical density at 600 nm of culture broths (10 nM peptide, transfer 4, 96 h, 30° C.): 2.108
- Optical density at 600 nm of culture broths (10 nM peptide, transfer 5, 96 h, 30° C.): 2.069
- Optical density at 600 nm of culture broths (10 nM peptide, transfer 6, 96 h, 30° C.): 2.062
- Optical density at 600 nm of culture broths (50 nM peptide added after germination, transfer 1, 72 h, 37° C.): 1.313
- Optical density at 600 nm of culture broths (50 nM peptide added after germination, transfer 2, 72 h, 37° C.): 0.011
- Effect on endpoint measurements of growth after germination or during sequential transfers (50 nM peptide, 37° C.): no effect
- Effect on germination and growth (visual observations through the course of growth) (50 nM peptide, 37° C.): repressive effect
- Optical density at 600 nm of culture broths (50 nM peptide, transfer 1, 96 h, 30° C.): 2.102
- Optical density at 600 nm of culture broths (50 nM peptide, transfer 2, 96 h, 30° C.): 2.023
- Optical density at 600 nm of culture broths (50 nM peptide, transfer 3, 96 h, 30° C.): 1.936
- Optical density at 600 nm of culture broths (50 nM peptide, transfer 4, 96 h, 30° C.): 2.061
- Optical density at 600 nm of culture broths (50 nM peptide, transfer 5, 96 h, 30° C.): 2.120
- Optical density at 600 nm of culture broths (50 nM peptide, transfer 6, 96 h, 30° C.): 2.046
- Growth of treated cultures during incubation (data not shown) (1-50 nM peptide, 96 h, 30° C.): slow the growth of the treated cultures during 96 h of incubation in a dose dependent manner
- Optical density at 600 nm of culture broths (50-50: germinated and transferred in 50 nM peptide, transfer 1, 72 h, 37° C.): 1.420
- Optical density at 600 nm of culture broths (50-50: germinated and transferred in 50 nM peptide, transfer 2, 72 h, 37° C.): 0.011
- Optical density at 600 nm of culture broths (50-50: spores germinated in 50 nM peptide, transfer 0 (germinated culture), 72 h, 37° C.): 1.158
- Number of times that cultures could be transferred in comparison with an untreated culture (through six culture transfers, 30° C.): did not affect

From US20120107916A1, “METHODS AND COMPOSITIONS FOR AFFECTING THE DIFFERENTIATION OF CLOSTRIDIA IN CULTURE” (priority 2009, published 2012)
